The nature of data set [1]: Chlorambucil stability in aqueous solution (LCMS area percent). Format: physicochemical. The settings on record: chlorambucil in water (5% methanol).
The conditions of data set [2]: oral; cited from earlier work.
The conditions of data set [3]: cited from earlier work.
For data set [4] the following is noted: ten patients; cited from earlier work.
Data set [5] concerns the target plasma proteins, specifically albumin (Homo sapiens, UniProt P02768). The settings on record: in vitro; cited from earlier work.

Sequence of plasma proteins, specifically albumin (P02768 25-609): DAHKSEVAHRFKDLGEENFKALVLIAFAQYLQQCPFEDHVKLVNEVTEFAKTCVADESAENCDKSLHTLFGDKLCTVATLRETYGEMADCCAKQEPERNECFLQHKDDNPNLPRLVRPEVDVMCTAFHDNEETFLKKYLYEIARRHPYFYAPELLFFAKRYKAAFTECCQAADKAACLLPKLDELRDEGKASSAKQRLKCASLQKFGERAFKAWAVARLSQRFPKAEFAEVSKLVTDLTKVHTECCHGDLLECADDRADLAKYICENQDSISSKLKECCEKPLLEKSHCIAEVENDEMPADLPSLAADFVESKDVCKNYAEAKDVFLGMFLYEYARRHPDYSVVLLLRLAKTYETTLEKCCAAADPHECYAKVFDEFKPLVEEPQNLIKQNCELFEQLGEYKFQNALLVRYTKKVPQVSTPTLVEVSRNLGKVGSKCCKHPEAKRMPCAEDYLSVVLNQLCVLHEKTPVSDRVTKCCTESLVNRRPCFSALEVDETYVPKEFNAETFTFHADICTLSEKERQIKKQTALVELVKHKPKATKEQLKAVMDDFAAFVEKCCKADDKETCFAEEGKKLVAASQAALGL

For the molecule `O=C(O)CCCc1ccc(N(CCCl)CCCl)cc1` [Chlorambucil], the “Chlorambucil (Area %)” value in data set [1] (t 0 h) was 98.3 Area %; in data set [1] (t 1 h), 85.3 Area %; in data set [1] (t 2 h), 74.8 Area %; in data set [1] (t 3 h), 64.4 Area %; in data set [1] (t 4 h), 58.9 Area %; in data set [1] (t 5 h), 53.1 Area %. Moreover, the “absorbed from the gastrointestinal tract” value in data set [2] is recorded as more than 70%. Besides, the “solubility in acetone and in alcohol” value in data set [3] (acetone, alcohol) is listed as “freely soluble”. Further, the solubility in water entry in data set [3] (water) was “practically insoluble”. The “increase of median Tmax by food intake” value in data set [4] was 2 fold. Moreover, the “reduction of dose-adjusted AUC by food intake” value in data set [4] is 20%. Besides, the “reduction of dose-adjusted Cmax by food intake” value in data set [4] is listed as 55%. Further, in data set [5], the “bound to plasma proteins” value is on record as 99%.

The values are drawn from patent US20190142748A1 (priority 2016, published 2019).
